The record followed here is patent US9480259B2, “Pyrazolopyrans having herbicidal and pharmaceutical properties” (BASF SE, priority 2012, dated 2016).

The target of this assay is Arabidopsis thaliana SHMT. In words: SHMT activity assay (ED50 SHMT), coupled with N5,N10-CH2-THF dehydrogenase, NADH at 340 nm. Type of assay: biochemical. In short, it runs like this:
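His-tagged SHMT purified on Ni-NTA. NADH formation followed at 340 nm for 30 min; ED50 from inhibition of initial velocity.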

Where [1] appears, read: Table 2, Arabidopsis thaliana SHMT enzyme assay, values given as upper bounds.
The mark [2] stands for this setting: Arabidopsis thaliana SHMT enzyme assay, values given as upper bounds.
[3] abbreviates: inhibition of initial velocity of Arabidopsis thaliana SHMT.
The mark [4] stands for this setting: Table 2, values given as upper bounds.

pEC50: −log10 of the molar value. Where only a bound is given, the exact number is not on record here.

For the compound `COc1n[nH]c2c1C(c1cc(C#N)cc(C(F)(F)F)c1)(C1CC1)C(C#N)=C(N)O2` (stereo not drawn) [Compound 2.392], the negative logarithm of the EC50 (pEC50) (in general, the EC50 on a negative log10 scale, so that one unit is a factor of ten) under setting [1] was above 7.00.
On to `Cc1n[nH]c2c1C(c1cc(CCc3nnn[nH]3)cc(-c3nnn[nH]3)c1)(C(C)C)C(C#N)=C(N)O2` (stereo not drawn) [Compound 2.716], for which, under setting [2], the pEC50 was above 5.00.
Consider `CCC1(c2cc(-c3cccs3)cs2)C(C#N)=C(N)Oc2[nH]nc(C)c21` (stereo not drawn) [Compound 4.61], for which the pEC50 under setting [3] was above 7.00.
As for `CCOc1n[nH]c2c1C(c1cc(C#N)cc(C(F)(F)F)c1)(C1CC1)C(C#N)=C(N)O2` (stereo not drawn) [Compound 2.393], the pEC50 under setting [1] is above 6.00.
Under setting [2], `Cc1n[nH]c2c1C(c1cc(C#N)cc(-c3cc(C(=O)O)cs3)c1)(C1CCC1)C(C#N)=C(N)O2` (stereo not drawn) [Compound 2.683] had a negative logarithm of the EC50 (pEC50) above 8.00.
The same measure, in the same setting: with `Cc1n[nH]c2c1C(c1cc(C#N)cc(-c3cccc(C(=O)O)c3)c1)(C1(F)COC1)C(C#N)=C(N)O2` (stereo not drawn) [Compound 2.656] the figure was above 8.00.
In turn, `Cc1n[nH]c2c1C(c1ccc(-c3ccccc3)s1)(C1CC1)C(C#N)=C(N)O2` (stereo not drawn) [Compound 4.55] showed a pEC50 under setting [3] above 7.00.
The compound `CCC1(c2ccc(C(F)(F)F)c(F)c2)C(C#N)=C(N)Oc2[nH]nc(C)c21` (stereo not drawn) [Compound 2.29.] showed a pEC50 under setting [4] above 5.00.
On the same count and under the same terms, then `Cc1n[nH]c2c1C(c1cc(C#N)cc(-c3cccc(C(=O)O)c3)c1)(C1(F)CC1)C(C#N)=C(N)O2` (stereo not drawn) [Compound 2.510], with above 8.00.
As for `COC(=O)c1cc(C(=O)OC)cc(-c2cc(C#N)cc(C3(C4CCC4)C(C#N)=C(N)Oc4[nH]nc(C)c43)c2)c1` (stereo not drawn) [Compound 2.549], the pEC50 under setting [4] was above 7.00.
Regarding `N#CC1=C(N)Oc2[nH]ncc2C1(c1cc(Br)cc(C#N)c1)C1CC=CC1` (stereo not drawn) [Compound 2.376], under setting [1], the pEC50 was above 8.00.
The same measure, in the same setting: with `Cc1n[nH]c2c1C(c1cc(Br)cc(OC(F)(F)F)c1)(C1CCC1)C(C#N)=C(N)O2` (stereo not drawn) [Compound 2.307] the figure was above 8.00.
`CCOC(=O)CCCN(C)c1cc(C#N)cc(C2(C3CCC3)C(C#N)=C(N)Oc3[nH]nc(C)c32)c1` (stereo not drawn) [Compound 2.658] showed a pEC50 under setting [2] above 8.00.
For `COC(=O)Cc1cccc(-c2cc(C#N)cc(C3(C4CCC4)C(C#N)=C(N)Oc4[nH]nc(C)c43)c2)c1` (stereo not drawn) [Compound 2.524], the pEC50 under setting [4] is above 8.00.
Same read-out and setting: then `Cc1n[nH]c2c1C(c1cc(Cl)cc(Cl)c1)(C(C)F)C(C#N)=C(N)O2` (stereo not drawn) [Compound 2.651], with above 8.00.
The compound `Cc1n[nH]c2c1C(c1ccc(-c3ccc(Cl)cc3)s1)(C1CCC1)C(C#N)=C(N)O2` (stereo not drawn) [Compound 4.20] had a pEC50 under setting [3] above 8.00.
`Cc1n[nH]c2c1C(c1cccc(OC(F)(F)F)c1)(C1CCC1)C(C#N)=C(N)O2` (stereo not drawn) [Compound 2.278] had a pEC50 under setting [1] above 8.00.
Turning to `CCOC(=O)COc1ccc(C2(CC)C(C#N)=C(N)Oc3[nH]nc(C)c32)cc1[N+](=O)[O-]` (racemic) [Compound 2.43.], under setting [4], the pEC50 was above 6.00.
Turning to `Cc1n[nH]c2c1C(c1cc(Cl)cc(I)c1)(C1CCC1)C(C#N)=C(N)O2` (stereo not drawn) [Compound 2.299], the negative logarithm of the EC50 (pEC50) under setting [1] is above 8.00.
On to `COC(=O)c1csc(-c2cc(C#N)cc(C3(C4CCC4)C(C#N)=C(N)Oc4[nH]nc(C)c43)c2)c1` (stereo not drawn) [Compound 2.682], for which the pEC50 under setting [2] is above 8.00.
Same read-out and setting: then `Cc1n[nH]c2c1C(c1cc(C#N)cc(N(C)C(=O)CCC#N)c1)(C1CCC1)C(C#N)=C(N)O2` (stereo not drawn) [Compound 2.661], with above 8.00.
For `N#CC1=C(N)Oc2[nH]ncc2C1(c1cc(Cl)cc(-c2nccs2)c1)C1CCC1` (stereo not drawn) [Compound 2.319], the pEC50 under setting [1] was above 8.00.
Compound `Cc1n[nH]c2c1C(c1ccc(Cl)cc1)(C(C)C)C(C#N)=C(N)O2` (stereo not drawn) [Compound 2.143.] showed a pEC50 under setting [4] above 6.00.
Under setting [3], `Cc1n[nH]c2c1C(c1nc3c(Br)cccc3o1)(C1CCC1)C(C#N)=C(N)O2` (racemic) [Compound 4.58] gave a pEC50 above 7.00.
The compound `COc1n[nH]c2c1C(c1cc(C#N)cc(C(F)(F)F)c1)(C1CCC1)C(C#N)=C(N)O2` (stereo not drawn) [Compound 2.390] had a pEC50 under setting [1] above 8.00.
With `CCC1(c2ccc(NC(=O)C(C)(C)C)cc2)C(C#N)=C(N)Oc2[nH]nc(C)c21` (stereo not drawn) [Compound 2.39.], the pEC50 under setting [4] was above 5.00.
On the same count and under the same terms, with `Cc1n[nH]c2c1C(c1cc(C#N)cc(-c3ccc(C(=O)O)s3)c1)(C1CCC1)C(C#N)=C(N)O2` (stereo not drawn) [Compound 2.640] the figure was above 8.00.
`Cc1n[nH]c2c1C(c1ccc(Cl)c(Cl)c1)(C1CCCCC1)C(C#N)=C(N)O2` (stereo not drawn) [Compound 2.212.]: the pEC50 under setting [4] is above 5.00.
`CCC1(c2cccc(-c3ccccc3)c2)C(C#N)=C(N)Oc2[nH]nc(C)c21` (stereo not drawn) [Compound 2.35.]: the pEC50 under setting [4] was above 6.00.
In turn, `Cc1n[nH]c2c1C(c1cc(-c3ccccc3)cs1)(C1CCC1)C(C#N)=C(N)O2` (stereo not drawn) [Compound 4.24] had a pEC50 under setting [3] above 8.00.
`Cc1n[nH]c2c1C(c1cc(Cl)cc(CC(=O)O)c1)(C1CCC1)C(C#N)=C(N)O2` (stereo not drawn) [Compound 2.499] showed a pEC50 under setting [4] above 8.00.
As for `Cc1n[nH]c2c1C(c1cc3ccccc3o1)(C1CCC1)C(C#N)=C(N)O2` (stereo not drawn) [Compound 4.52], under setting [3], the pEC50 is above 7.00.
For `Cc1n[nH]c2c1C(c1ccc(Cl)c(OC(F)(F)F)c1)(C1CCC1)C(C#N)=C(N)O2` (stereo not drawn) [Compound 2.289], the pEC50 under setting [1] is above 8.00.
The compound `Cc1n[nH]c2c1C(c1cc(-c3ccccc3)cs1)(C(C)C)C(C#N)=C(N)O2` (stereo not drawn) [Compound 4.81] gave a pEC50 under setting [3] above 5.00.
Under setting [4], `N#CC1=C(N)Oc2[nH]ncc2C1(c1cccc(C(F)(F)F)c1)C1CCC1` (stereo not drawn) [Compound 2.195.] gave a pEC50 above 6.00.
`N#CC1=C(N)Oc2[nH]ncc2C1(c1cc(Br)cc(C(F)(F)F)c1)C1CCC1` (stereo not drawn) [Compound 2.259]: under setting [1], the pEC50 is above 8.00.
As for `Cc1n[nH]c2c1C(c1ccc3c(c1)OCCO3)(C1(F)CC1)C(C#N)=C(N)O2` (racemic) [Compound 4.51], the negative-log EC50 (pEC50) under setting [3] is above 7.00.
In turn, `Cc1n[nH]c2c1C(c1ccc(OCCc3nnn[nH]3)c(Cl)c1)(C1CCC1)C(C#N)=C(N)O2` (stereo not drawn) [Compound 2.646] gave a pEC50 under setting [4] above 8.00.
In the case of `Cc1n[nH]c2c1C(c1ccc(F)c(OC(F)(F)F)c1)(C1CCC1)C(C#N)=C(N)O2` (stereo not drawn) [Compound 2.265], under setting [1], the pEC50 is above 8.00.
`CCCC1(c2cc(C#N)cc(C#N)c2)C(C#N)=C(N)Oc2[nH]nc(CC)c21` (stereo not drawn) [Compound 2.579]: the pEC50 under setting [4] is above 7.00.
As to `Cc1n[nH]c2c1C(c1ccc(F)c(Cl)c1)(C1CCC1)C(C#N)=C(N)O2` (stereo not drawn) [Compound 2.182.], the pEC50 under setting [4] was above 7.00.
Still for that read-out and setting: then `COC(=O)c1cc(OC)cc(-c2cc(C#N)cc(C3(C4CCC4)C(C#N)=C(N)Oc4[nH]nc(C)c43)c2)c1` (stereo not drawn) [Compound 2.548], with above 8.00.
Same read-out and setting: then `CCCC1(c2cc(C#N)cc(C#N)c2)C(C#N)=C(N)Oc2[nH]nc(C(F)F)c21` (stereo not drawn) [Compound 2.610], with above 7.00; and `CCC1(c2ccc(O)c(C)c2)C(C#N)=C(N)Oc2[nH]nc(C)c21` (stereo not drawn) [Compound 2.25.], with above 6.00; and `CCC1(c2ccc(Oc3ccccc3)cc2)C(C#N)=C(N)Oc2[nH]nc(C3CC3)c21` (stereo not drawn) [Compound 2.131.], with above 5.00.
Same read-out and setting: with `CCC1(c2ccc(OC(=O)c3c(Cl)cccc3Cl)c(C)c2)C(C#N)=C(N)Oc2[nH]nc(C)c21` (stereo not drawn) [Compound 2.48.] the figure was above 5.00.
`CCC1(c2cc(C#N)cc(C(F)(F)F)c2)C(C#N)=C(N)Oc2[nH]nc(C(C)C)c21` (stereo not drawn) [Compound 2.581] gave a pEC50 under setting [4] above 7.00.
On the same count and under the same terms, then `COCOc1cc(Cl)cc(C2(C3CCC3)C(C#N)=C(N)Oc3[nH]nc(C)c32)c1` (stereo not drawn) [Compound 2.445], with above 8.00.
Compound `Cc1n[nH]c2c1C(c1cc(-c3cccs3)cs1)(C1CCC1)C(C#N)=C(N)O2` (stereo not drawn) [Compound 4.16] showed a negative-log EC50 (pEC50) under setting [3] above 8.00.
Under setting [1], `Cc1n[nH]c2c1C(c1cccc([S+](C)[O-])c1)(C1CCC1)C(C#N)=C(N)O2` (stereo not drawn) [Compound 2.312] gave a pEC50 above 6.00.
`Cc1n[nH]c2c1C(c1ccc(CCc3nnn[nH]3)c(Cl)c1)(C1CCC1)C(C#N)=C(N)O2` (stereo not drawn) [Compound 2.637]: the pEC50 under setting [4] was above 8.00.
On the same count and under the same terms, with `Cc1n[nH]c2c1C(c1cc(Cl)cc(Oc3ccc(O)cc3[N+](=O)[O-])c1)(C1CCC1)C(C#N)=C(N)O2` (stereo not drawn) [Compound 2.481] the figure was above 8.00; with `CCOC(=O)COc1cc(Cl)cc(C2(C3CCC3)C(C#N)=C(N)Oc3[nH]nc(C)c32)c1` (stereo not drawn) [Compound 2.480], above 7.00.
`Cc1n[nH]c2c1C(c1cc3cc(Cl)ccc3o1)(C1CCC1)C(C#N)=C(N)O2` (stereo not drawn) [Compound 4.7] showed a pEC50 under setting [3] above 8.00.
As to `CCc1n[nH]c2c1C(c1ccc(OC)c(C(F)(F)F)c1)(C1CC1)C(C#N)=C(N)O2` (stereo not drawn) [Compound 2.152.], under setting [4], the pEC50 was above 6.00.
`CCC1(c2ccc(OS(=O)(=O)c3ccc(Cl)cc3Cl)c(C)c2)C(C#N)=C(N)Oc2[nH]nc(C)c21` (stereo not drawn) [Compound 2.59.] gave a negative logarithm of the EC50 (pEC50) under setting [4] above 5.00.
Same read-out and setting: then `CCC1(c2ccc(-c3ccccc3F)cc2)C(C#N)=C(N)Oc2[nH]nc(C)c21` (stereo not drawn) [Compound 2.44.], with above 6.00.
Regarding `CCCc1n[nH]c2c1C(CC)(c1cccc(Cl)c1)C(C#N)=C(N)O2` (stereo not drawn) [Compound 2.85.], the pEC50 under setting [4] is above 5.00.
Under setting [2], `Cc1n[nH]c2c1C(c1cc(C#N)cc(Cc3nnn[nH]3)c1)(C(C)C)C(C#N)=C(N)O2` (stereo not drawn) [Compound 2.738] gave a pEC50 above 7.00.
Under setting [2], `Cc1n[nH]c2c1C(c1cc(Cl)cc(N(C)C(=O)CCCc3nnn[nH]3)c1)(C1CCC1)C(C#N)=C(N)O2` (stereo not drawn) [Compound 2.701] had a pEC50 above 7.00.
Take `Cc1n[nH]c2c1C(c1cccc(-c3cccc(C(=O)O)c3)c1)(C1CCC1)C(C#N)=C(N)O2` (stereo not drawn) [Compound 2.494]: the pEC50 under setting [4] was above 7.00.
Still for that read-out and setting: then `CCCc1n[nH]c2c1C(CC)(c1cccc(C(F)(F)F)c1)C(C#N)=C(N)O2` (racemic) [Compound 2.99.], with above 5.00.
Turning to `Cc1n[nH]c2c1C(c1cc(Cl)cc(-c3cccc(C(F)(F)F)c3)c1)(C1CCC1)C(C#N)=C(N)O2` (stereo not drawn) [Compound 2.249], the pEC50 under setting [1] is above 8.00.
In the case of `Cc1n[nH]c2c1C(c1cccc(OC(F)(F)C(F)F)c1)(C1CCC1)C(C#N)=C(N)O2` (stereo not drawn) [Compound 2.356], the pEC50 under setting [1] was above 8.00.
As to `Cc1n[nH]c2c1C(c1cc(C#N)cc(C(=O)O)c1)(C1CCC1)C(C#N)=C(N)O2` (stereo not drawn) [Compound 2.371], the pEC50 under setting [1] was above 6.00.
`Cc1n[nH]c2c1C(c1ccc(OC(F)(F)F)c(Cl)c1)(C1CCC1)C(C#N)=C(N)O2` (stereo not drawn) [Compound 2.303] gave a pEC50 under setting [1] above 8.00.
